Results published in a melting point compilation (Tetko et al.; mined from patent text by program, amines drawn as free bases though some values may be those of a salt).

Row | Structure (SMILES) | melting point
1 | CN(C)CCC=C1c2ccccc2CCc2ccc(S(C)(=O)=O)cc21 | 109 to 110 °C
2 | Cc1ccccc1C(=O)NCN1CCN(c2ncccc2C#N)CC1 | 124 to 127 °C
3 | CC[C@@]12CC(=O)[C@](O)(c3ccccc3)C[C@H]1CCc1cc(O)ccc12 | 97 to 98 °C
4 | O=C1Nc2cccnc2Oc2ccccc21 | 268 to 270 °C
5 | Cc1ccc(C2COc3c(C)c(C)c(NC(=O)CC(C)(C)C)c(C)c32)nc1 (stereo not given) | 170 to 171 °C
6 | CNC(=O)c1ccc(N2CCNCC2)c(Cl)c1 | 176 to 189 °C
7 | N#Cc1nn(-c2c(Cl)cc(C(F)(F)F)cc2Cl)c(N)c1C1(C(F)(F)F)CC1 | 178 to 179 °C
8 | O=C(NC(=O)c1c(F)cccc1F)Nc1ccc(SC(F)(F)F)cc1F | 173 to 175 °C
9 | NCCCc1ccc(SCCC(c2ccccc2)(c2ccccc2)c2ccccc2)cc1 | 73 to 75 °C
10 | CO/N=C(/CNC(=O)c1cnc(OCC(F)(F)F)c(-c2ccc(Cl)c(Cl)c2)c1)C(F)(F)F | 124 to 126 °C
11 | Fc1c(F)c(F)c(CSc2nc3cnccc3[nH]2)c(F)c1F | 156 to 159 °C
12 | Cc1ccnc2c1C(=O)CC(c1cccc(Cl)c1Cl)C2 (stereo not given) | 123 to 124 °C
13 | Cn1cc(-c2cccc(-n3ncc4cc(C(C)(C)C)cc(F)c4c3=O)c2CO)cc(Nc2ccc(C(C)(C)C(=O)O)cn2)c1=O | 218 to 220 °C
14 | Cc1sc(C(N)=O)c2c1-c1nn(C)cc1CC2 | 276 to 277 °C
15 | O=C1NC(=O)c2c1c(-c1ccccc1Cl)cc1c2c2cc(O)ccc2n1CCSc1ccccc1 | 262 to 264 °C
16 | Cc1cc(OC(=O)C(C)(C)C)c(C)c(C)c1OCc1ccccc1 | 50 to 53 °C
17 | COC(=O)C1(C(=O)Nc2ccc(Br)cc2C)C2CCCCC21 (stereo not given) | 105 to 107 °C
18 | CCOC(CN1CCN(c2cccc(-n3cnc4cc(C(C)=O)ccc43)c2)CC1)=NO | 154 to 156 °C
19 | Clc1ccc([Si](Cl)(Cl)Cl)cc1 | 60 to 61 °C
20 | CC(=O)SCC(CC(C)C)C(=O)NCCCCCCCC(=O)N[C@@H](CCCNC(=N)N)C(=O)O (stereo not given in full) | 85 to 102 °C
21 | Cc1nnc(C=Cc2ccccc2OCC(O)CCl)s1 (stereo not given) | 168 to 170 °C
22 | O=CN1CC(CCN2CC=C(c3c[nH]c4cc(Cl)ccc34)CC2)c2ccccc21 (stereo not given) | 183 to 185 °C
23 | CC(C)(CCl)C(O)C(=Cc1ccc(Cl)cc1)n1cncn1 (stereo not given) | 170 °C
24 | O=C1CCN(Cc2ccc(O)cc2)CC1C(c1ccccc1)c1ccccc1 (stereo not given) | 133 to 134 °C

Row | Structure (SMILES) | melting point
25 | COC(=O)C1=NC2=COc3c(OC)cccc3N2C1C(=O)O (stereo not given) | 167 to 168 °C
26 | COC(=O)c1nn(Cc2cccc(NC(=O)OC(C)(C)C)c2)c2c1CCc1cc(OCc3cncnc3)ccc1-2 | 221 to 222 °C
27 | CCCN(c1nc(-c2ccc(OC)cc2Cl)c(C)s1)c1cc(C(=O)O)ccc1OC | 109 °C
28 | CS(=O)c1cc(CCC(=O)O)cc(-c2nc(=O)c3ccccc3s2)n1 (stereo not given) | 266 °C
29 | COc1ccc2nc(C3(c4ccc(S(N)(=O)=O)cc4)C=C(C(F)F)NN3)sc2c1 (stereo not given) | 211 to 212 °C
30 | Cn1c(=N)sc2ccccc21 | 122 °C
31 | CC(C)(C)c1c[nH]c(S)n1 | 232 to 234 °C
32 | C=CCNC(=O)N1CCc2cc(S(=O)(=O)N3CC(c4ccccc4)NC3=O)ccc21 (stereo not given) | 217 to 219 °C
33 | Nc1nc2c(s1)CCN(CC=Cc1cc(Br)c(N)c(Br)c1)CC2 | 198 to 199 °C
34 | C=C(Br)c1cc(O)cc2nc(-c3ccc(O)cc3F)oc12 | 235 to 237 °C
35 | CCCCCCCCC(Cc1cccnc1)(C(=O)NO)S(=O)(=O)c1ccc(OC)cc1 (stereo not given) | 62 °C
36 | O=C(C1CCCC1)N1CCc2cc(S(=O)(=O)N3CCN(c4cccc(Cl)c4)CC3)ccc21 | 166 to 167 °C
37 | O=c1cc(Nc2ccccc2)[nH]n1-c1ccc(S(=O)(=O)O)cc1 | 290 to 291 °C
38 | Cn1nc(CCc2ccncc2)c2c(=O)n(-c3ccccc3)c3ncccc3c21 | 285 to 286 °C
39 | CNC(=O)Cc1c(C(=O)c2ccccc2)[nH]c2cc(Cl)ccc12 | 242 to 246 °C
40 | COc1ccc2nc(Cl)cc(CC#N)c2c1 | 182 to 184 °C
41 | Cc1noc(C)c1-c1cccc2c1C1(COc3cc4c(cc31)OCCO4)C(=O)N2C (stereo not given) | 228 to 230 °C
42 | Cc1nn(C)c(F)c1C(=O)Nc1cccc2c1CCC2(C)C | 138 °C
43 | O=C(O)/C=C/c1c[nH]c2ccccc2c1=O | 242 to 244 °C
44 | CCCCCCC(C)(C)c1cc(O)c2c(c1)OCCC1=C2CC(C)CC1 (stereo not given) | 134 to 136 °C
45 | CC(=O)NC(Cl)CCC(=O)c1ccccc1 (stereo not given) | 157 to 163 °C
46 | CCOC(=O)c1c(O)c2cccnc2n(Cc2ccccc2)c1=O | 143 °C
47 | Cn1cncc1C(O)(c1ccc(Cl)cc1)c1cc2nnn3c(=O)cc(-c4cccc(Cl)c4)c(c1)c23 (stereo not given) | 226 °C
48 | COC(=O)C1(C)CN(C(=O)Nc2ccc(C(F)(F)F)cc2)N=C1c1ccc(Cl)cc1 (stereo not given) | 143 to 146 °C

Row | Structure (SMILES) | melting point
49 | CCCOC(=O)C(=C1SC=CS1)S(=O)(=O)C(C)C | 78 to 79 °C
50 | CCc1nc2c(cnn2CC)c(NC2CCOCC2)c1CNC(=O)c1cc(C)cc(C(=O)NCc2cccc(-c3cccc(CC4CCN(C)CC4)c3)c2)c1 | 119 to 121 °C
51 | CCCCc1nc(NC(C)=O)[nH]c(=O)c1Cc1ccc(-c2ccccc2-c2nnn[nH]2)cc1 | 205 to 208 °C
52 | COc1ccc2c(c1O)C13CCN(C)C(C2)C1C=C(C)C(=O)C3 (stereo not given) | 183 to 185 °C
53 | CCOC(=O)c1ccc(C=C(C)C=O)o1 | 83 °C
54 | CC(=O)N1C(C)(C)CC(NC(=O)c2ccc(Cl)c(N)c2)CC1(C)C | 232 to 234 °C
55 | O=C(O)[C@@H]1Cc2cc(Cl)cc(Cl)c2O[C@@H]1C(F)(F)F | 100 to 101 °C
56 | Cc1cccc(Nn2cnc(C)c2-c2ccccc2)c1 | 159 °C
57 | CS(=O)(=O)c1ccc(C(CC2CCCC2)C(=O)Nc2ncc(C(=O)O)s2)cc1 (stereo not given) | 172 to 176 °C
58 | N#Cc1ccc(Cn2cncc2CCNC(=O)[C@H]2CN(Cc3ccccc3)CCN2C(=O)CC2CCN(C(N)=O)CC2)cc1 | 118 °C
59 | Cc1ccc(C(=O)NC(NC(=NC#N)Nc2cccnc2)C(C)(C)C)cc1 (single isomer, unassigned; (+)) | 188 to 189 °C
60 | N#Cc1c(Cl)ccc2cc(Cl)cnc12 | 222 °C
61 | CCOC(=O)C1=C(Cc2ccccc2)Nc2n[nH]cc2C1c1ccccc1Cl (stereo not given) | 247 °C
62 | O=C1CCN(C2c3ccccc3C=Cc3ccccc32)CC1C(c1ccccc1)c1ccccc1 (stereo not given) | 175 to 178 °C
63 | CC1(C)CC(Nc2nccc3ccccc23)CC(C)(C)N1 | 133 °C
64 | O=Cc1nc(C(Cl)Cl)cnc1N1C(=O)c2ccccc2C1=O | 145 to 146 °C
65 | C=C(C(=O)O)c1ccc2c(c1)Cc1ccccc1-2 | 183 to 185 °C
66 | CCCn1cc2c(C3C(=O)Nc4ccc(Br)cc43)nc(Cl)nc2n1 (stereo not given) | > 300 °C
67 | CC(C)c1nc(-c2cc3cc(OCCNC[C@H](O)c4cccc(Cl)c4)ccc3o2)no1 | 84 to 87 °C
68 | CCOc1ccccc1C(O)c1cc(Cl)ccc1N (stereo not given) | 80 to 81 °C
69 | CC1=CC2c3cccc4[nH]c(SC(C)C)c(c34)CC2N(C)C1 (stereo not given) | 145 to 147 °C
70 | O=C(NC1CC1)OC1c2ccccc2C(=O)N1c1ccc2ccc(Cl)nc2n1 (stereo not given) | 220 °C
